Reference: patent US11661431B2, “Thienopyrrole compounds” (Gilead Sciences, Inc., priority 2021, dated 2023)

Legend:
TLR8 = TLR8 (Homo sapiens (Human), UniProt Q9NR97); assay: TLR8 human peripheral blood mononuclear cell (PBMC) cell-based assay (Compound A as agonist; TNFα and IL12p40 readout); settings: human PBMCs, TLR8 agonist Compound A at 800 nM, 6 hours, antagonist potency; read-out: TLR-8 EC50
Method: After counting, the cell density was adjusted to 2 million cells/ml and incubated for 1 hour at 37° C., 5% CO2 for recovery. Following the recovery, the cells were plated by adding 50 μl per well (100,000 cells) to 384-well cell culture plates (Greiner) containing 250 nl of test antagonists in 100% DMSO per well, in a 10 points dose response in quadruplicates. PBMCs were incubated in the presence of antagonists for one hour at 37° C., 5% CO2 before being stimulated with TLR8 agonist. […] PBMCs were incubated in the presence of antagonist and the TLR8 agonist for an additional 6 hours at 37° C., 5% CO2. At the end of the incubation, the cell culture plates were centrifuged at 500 g for 5 min, and the cell culture supernatant was collected. The level of cytokines (TNFα and IL12p40) in the supernatant was measured by electrochemiluminescence immunoassays (Mesoscale Discovery) following manufacturer's recommended protocols.

TLR7 = TLR7 (Homo sapiens (Human), UniProt Q9NYK1); assay: TLR7 human peripheral blood mononuclear cell (PBMC) cell-based assay (GS-986 as agonist; IL-6 and IFNα readout); settings: human PBMCs, TLR7 agonist GS-986 at 400 nM, 6 hours, antagonist potency; read-out: TLR-7 EC50
Method: Human peripheral blood mononuclear cells (PBMCs) consist of lymphocytes, monocytes and dendritic cells that express TLR7, TLR8 and TLR9. These cells respond to TLR7, TLR8 and TLR9 ligand stimulation and produce cytokines and chemokines in vitro and in vivo. Human PBMCs are therefore suitable to be used in a cell-based assay to assess the in vitro potency of a TLR 7, 8, and/or 9 antagonist.
After counting, the cell density was adjusted to 2 million cells/ml and incubated for 1 hour at 37° C., 5% CO2 for recovery. Following the recovery, the cells were plated by adding 50 μl per well (100,000 cells) to 384-well cell culture plates (Greiner) containing 250 nl of test antagonists in 100% DMSO per well, in a 10 points dose response in quadruplicates. PBMCs were incubated in the presence of test antagonists for one hour at 37° C., 5% CO2 before being stimulated with a TLR7 or TLR9agonist. […] PBMCs were incubated in the presence of the test antagonist and the TLR7 (or TLR9) agonist for an additional 6 hours at 37° C., 5% CO2. At the end of the incubation, the cell culture plates were centrifuged at 500 g for 5 min, and the cell culture supernatant was collected. The level of cytokines (IL-6 and IFNα) in the supernatant was measured by electrochemiluminescence immunoassays (Mesoscale Discovery) following manufacturer's recommended protocols.

Chain of TLR8 (Q9NR97 27-1041): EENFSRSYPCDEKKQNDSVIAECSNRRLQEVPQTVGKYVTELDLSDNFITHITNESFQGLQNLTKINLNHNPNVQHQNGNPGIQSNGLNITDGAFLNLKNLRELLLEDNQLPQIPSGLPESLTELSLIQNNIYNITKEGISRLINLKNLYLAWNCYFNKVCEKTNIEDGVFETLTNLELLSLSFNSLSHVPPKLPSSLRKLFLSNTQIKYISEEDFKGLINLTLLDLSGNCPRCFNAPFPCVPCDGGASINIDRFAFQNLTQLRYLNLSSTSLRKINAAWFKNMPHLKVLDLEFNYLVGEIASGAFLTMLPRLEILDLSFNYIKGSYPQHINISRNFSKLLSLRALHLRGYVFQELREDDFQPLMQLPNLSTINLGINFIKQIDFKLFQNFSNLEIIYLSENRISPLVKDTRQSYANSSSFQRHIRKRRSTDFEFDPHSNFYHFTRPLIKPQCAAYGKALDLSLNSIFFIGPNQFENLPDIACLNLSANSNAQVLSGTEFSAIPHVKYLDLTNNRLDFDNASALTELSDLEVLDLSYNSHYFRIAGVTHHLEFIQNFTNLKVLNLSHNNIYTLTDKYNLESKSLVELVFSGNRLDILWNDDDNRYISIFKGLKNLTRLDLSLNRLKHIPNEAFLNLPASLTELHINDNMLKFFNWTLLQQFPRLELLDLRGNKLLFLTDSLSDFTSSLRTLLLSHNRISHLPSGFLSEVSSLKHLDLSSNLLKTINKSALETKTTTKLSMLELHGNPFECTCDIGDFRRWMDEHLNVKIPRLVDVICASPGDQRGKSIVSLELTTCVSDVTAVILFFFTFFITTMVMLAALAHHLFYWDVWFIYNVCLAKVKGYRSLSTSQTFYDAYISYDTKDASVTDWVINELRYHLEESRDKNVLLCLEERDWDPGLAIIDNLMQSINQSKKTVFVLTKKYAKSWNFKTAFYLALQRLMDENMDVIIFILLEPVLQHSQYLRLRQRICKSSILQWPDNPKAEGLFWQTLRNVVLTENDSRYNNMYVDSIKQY
Chain of TLR7 (Q9NYK1 27-1049): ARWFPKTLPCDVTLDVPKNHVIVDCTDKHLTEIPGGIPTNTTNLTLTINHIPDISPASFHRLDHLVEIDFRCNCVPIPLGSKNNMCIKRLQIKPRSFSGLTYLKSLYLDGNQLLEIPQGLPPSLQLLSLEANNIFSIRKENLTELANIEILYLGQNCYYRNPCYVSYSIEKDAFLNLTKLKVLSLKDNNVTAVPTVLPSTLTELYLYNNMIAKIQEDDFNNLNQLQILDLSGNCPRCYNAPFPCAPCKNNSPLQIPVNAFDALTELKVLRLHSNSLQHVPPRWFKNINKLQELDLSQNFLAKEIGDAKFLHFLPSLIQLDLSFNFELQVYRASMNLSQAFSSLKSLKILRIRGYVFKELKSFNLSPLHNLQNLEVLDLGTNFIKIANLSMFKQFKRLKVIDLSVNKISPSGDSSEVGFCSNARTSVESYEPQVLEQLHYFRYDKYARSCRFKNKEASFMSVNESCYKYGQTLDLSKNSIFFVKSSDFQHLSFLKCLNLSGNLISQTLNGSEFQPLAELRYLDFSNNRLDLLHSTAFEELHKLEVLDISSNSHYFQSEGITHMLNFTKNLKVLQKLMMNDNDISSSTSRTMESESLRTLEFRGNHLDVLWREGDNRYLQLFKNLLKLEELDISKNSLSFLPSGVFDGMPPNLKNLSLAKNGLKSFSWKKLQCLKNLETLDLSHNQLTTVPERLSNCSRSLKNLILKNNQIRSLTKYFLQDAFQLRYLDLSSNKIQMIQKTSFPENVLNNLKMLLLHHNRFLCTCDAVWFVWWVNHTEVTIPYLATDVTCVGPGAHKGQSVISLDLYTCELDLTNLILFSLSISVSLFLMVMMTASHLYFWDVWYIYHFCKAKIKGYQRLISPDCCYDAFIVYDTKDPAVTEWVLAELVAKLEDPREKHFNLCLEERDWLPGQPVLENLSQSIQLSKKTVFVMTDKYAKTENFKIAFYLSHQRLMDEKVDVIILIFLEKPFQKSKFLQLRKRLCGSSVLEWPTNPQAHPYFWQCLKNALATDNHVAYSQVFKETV

Row | EC50 (TLR8) | EC50 (TLR7) | SMILES
1 | 37.3 nM | 2.9 nM | Cc1c(-c2[nH]c3sc([C@H]4C[C@H](c5nnc([C@@H]6COCCN6)o5)C4)c(C)c3c2C(C)C)cn2ncnc2c1C (single isomer, unassigned) [Example 242]
2 | 21.4 nM | 1.25 nM | Cc1c(-c2[nH]c3sc([C@H]4C[C@@H](c5nnc([C@@H]6COCCN6)o5)C4)c(C)c3c2C(C)C)cn2ncnc2c1C (single isomer, unassigned) [Example 243]
3 | 9.43 nM | 0.14 nM | Cc1c(-c2[nH]c3sc(C4CC(n5cc(C6COCCN6)nn5)C4)c(C)c3c2C(C)C)cn2ncnc2c1C (single isomer, unassigned) [Example 244, 3-(1-(3-(5-(7,8-dimethyl-[1,2,4]triazolo[1,5-a]pyridin-6-yl)-4-isopropyl-3-methyl-6H-thieno[2,3-b]pyrrol-2-yl)cyclobutyl)-1H-1,2,3-triazol-4-yl)morpholine]
4 | 3.33 nM | 0.17 nM | Cc1c(-c2[nH]c3sc(C4CC(n5cc(C6COCCN6)nn5)C4)c(C)c3c2C(C)C)cn2ncnc2c1C (single isomer, unassigned) [Example 245, 3-(1-(3-(5-(7,8-dimethyl-[1,2,4]triazolo[1,5-a]pyridin-6-yl)-4-isopropyl-3-methyl-6H-thieno[2,3-b]pyrrol-2-yl)cyclobutyl)-1H-1,2,3-triazol-4-yl)morpholine]
5 | 4.54 nM | < 0.05 nM | Cc1c(C2CCCN(CC(N)=O)CC2)sc2[nH]c(-c3cc(C)c4ncnn4c3)c(C(C)C)c12 (single isomer, unassigned) [Example 262, 2-(4-(4-isopropyl-3-methyl-5-(8-methyl-[1,2,4]triazolo[1,5-a]pyridin-6-yl)-6H-thieno[2,3-b]pyrrol-2-yl)azepan-1-yl)acetamide]
6 | 18.6 nM | 1.17 nM | Cc1c(C2CCCN(CC(N)=O)CC2)sc2[nH]c(-c3cc(C)c4ncnn4c3)c(C(C)C)c12 (single isomer, unassigned) [Example 263, 2-(4-(4-isopropyl-3-methyl-5-(8-methyl-[1,2,4]triazolo[1,5-a]pyridin-6-yl)-6H-thieno[2,3-b]pyrrol-2-yl)azepan-1-yl)acetamide]
7 | 19.3 nM | 0.65 nM | Cc1c(-c2[nH]c3sc(C4CCN(C5CCNC5=O)CC4)c(C)c3c2C(C)C)cn2ncnc2c1C (single isomer, unassigned) [Example 290, 3-[4-[5-(7,8-dimethyl-[1,2,4]triazolo[1,5-a]pyridin-6-yl)-4-isopropyl-3-methyl-6H-thieno[2,3-b]pyrrol-2-yl]-1-piperidyl]pyrrolidin-2-one]
8 | 22.2 nM | 0.6 nM | Cc1c(-c2[nH]c3sc(C4CCN(C5CCNC5=O)CC4)c(C)c3c2C(C)C)cn2ncnc2c1C (single isomer, unassigned) [Example 291, 3-[4-[5-(7,8-dimethyl-[1,2,4]triazolo[1,5-a]pyridin-6-yl)-4-isopropyl-3-methyl-6H-thieno[2,3-b]pyrrol-2-yl]-1-piperidyl]pyrrolidin-2-one]
9 | 3.91 nM | 0.09 nM | Cc1c(-c2[nH]c3sc(C4CCC5(CC4)CNCCO5)c(C)c3c2C(C)C)cn2ncnc2c1C (single isomer, unassigned) [Example 292, 9-(5-(7,8-dimethyl-[1,2,4]triazolo[1,5-a]pyridin-6-yl)-4-isopropyl-3-methyl-6H-thieno[2,3-b]pyrrol-2-yl)-1-oxa-4-azaspiro[5.5]undecane]
10 | 20.5 nM | 1.67 nM | Cc1c(-c2[nH]c3sc(C4CCC5(CC4)CNCCO5)c(C)c3c2C(C)C)cn2ncnc2c1C (single isomer, unassigned) [Example 293, 9-(5-(7,8-dimethyl-[1,2,4]triazolo[1,5-a]pyridin-6-yl)-4 isopropyl-3-methyl-6H-thieno[2,3-b]pyrrol-2-yl)-1-oxa-4-azaspiro[5.5]undecane]
11 | 4.44 nM | 0.78 nM | Cc1c(-c2[nH]c3sc(C4CCC(N5CC6(CCNC6=O)C5)CC4)c(C)c3c2C(C)C)cn2ncnc2c1C (single isomer, unassigned) [Example 305, 2-[4-[5-(7,8-dimethyl-[1,2,4]triazolo[1,5-a]pyridin-6-yl)-4-isopropyl-3-methyl-6H-thieno[2,3-b]pyrrol-2-yl]cyclohexyl]-2,6-diazaspiro[3.4]octan-5-one]
12 | 0.49 nM | < 0.05 nM | Cc1c(-c2[nH]c3sc(C4CCC(N5CC6(CCNC6=O)C5)CC4)c(C)c3c2C(C)C)cn2ncnc2c1C (single isomer, unassigned) [Example 306, 2-[4-[5-(7,8-dimethyl-[1,2,4]triazolo[1,5-a]pyridin-6-yl)-4-isopropyl-3-methyl-6H-thieno[2,3-b]pyrrol-2-yl]cyclohexyl]-2,6-diazaspiro[3.4]octan-5-one]
13 | 1.19 nM | 2.51 nM | Cc1c(-c2[nH]c3sc(C4CC5(CCN(CCS(C)(=O)=O)C5)C4)c(C)c3c2C(C)C)cn2ncnc2c1C (single isomer, unassigned) [Example 313, 5-(7,8-dimethyl-[1,2,4]triazolo[1,5-a]pyridin-6-yl)-4-isopropyl-3-methyl-2-(6-(2-(methylsulfonyl)ethyl)-6-azaspiro[3.4]octan-2-yl)-6H-thieno[2,3-b]pyrrole]
14 | 1.22 nM | 10 nM | Cc1c(-c2[nH]c3sc(C4CC5(CCN(CCS(C)(=O)=O)C5)C4)c(C)c3c2C(C)C)cn2ncnc2c1C (single isomer, unassigned) [Example 314, 5-(7,8-dimethyl-[1,2,4]triazolo[1,5-a]pyridin-6-yl)-4-isopropyl-3-methyl-2-(6-(2-(methylsulfonyl)ethyl)-6-azaspiro[3.4]octan-2-yl)-6H-thieno[2,3-b]pyrrole]
15 | 32.4 nM | 28.2 nM | Cc1c(-c2[nH]c3sc(C4CCC45CN(CC(N)=O)C5)c(C)c3c2C(C)C)cn2ncnc2c1C (single isomer, unassigned) [Example 315, 2-(5-(5-(7,8-dimethyl-[1,2,4]triazolo[1,5-a]pyridin-6-yl)-4 isopropyl-3-methyl-6H-thieno[2,3-b]pyrrol-2-yl)-2-azaspiro[3.3]heptan-2-yl)acetamide]
16 | 108 nM | 47.3 nM | Cc1c(-c2[nH]c3sc(C4CCC45CN(CC(N)=O)C5)c(C)c3c2C(C)C)cn2ncnc2c1C (single isomer, unassigned) [Example 316, 2-(5-(5-(7,8-dimethyl-[1,2,4]triazolo[1,5-a]pyridin-6-yl)-4-isopropyl-3-methyl-6H-thieno[2,3-b]pyrrol-2-yl)-2-azaspiro[3.3]heptan-2-yl)acetamide]
17 | 8.93 nM | 0.56 nM | Cc1cc(-c2[nH]c3sc(C(=O)N(C)C4CCNCC4)cc3c2C(C)C)cn2ncnc12 [Example 1, 4-isopropyl-N-methyl-5-(8-methyl-[1,2,4]triazolo[1,5-a]pyridin-6-yl)-N-(piperidin-4-yl)-6H-thieno[2,3-b]pyrrole-2-carboxamide]
18 | 5.79 nM | 1.04 nM | Cc1cc(-c2[nH]c3sc(C(=O)N4CCNCC4)cc3c2C(C)C)cn2ncnc12 [Example 2]
19 | 9.95 nM | 0.27 nM | Cc1cc(-c2[nH]c3sc(C(=O)N(C)[C@H]4CCNC4)cc3c2C(C)C)cn2ncnc12 [Example 3]
20 | 5.96 nM | 0.5 nM | Cc1cc(-c2[nH]c3sc(C(=O)N(C)C4CCN(CCO)CC4)cc3c2C(C)C)cn2ncnc12 [Example 5]
